Data set [1] has as its system bleomycin-injured mice (pulmonary fibrosis). The data set is described as follows: EGCG treatment of bleomycin-injured mice monitored with Gd-9 MRI. It is filed as in vivo, mouse. As for the experimental part:
Gd-9 is a Gd-DOTA derivative with two hydrazine arms synthesized by amide coupling of two tBu-piperazin-1-ylcarbamate groups to 1,4,7,10-tetraazacyclododecane-1,4-bis(tBu-acetate)-4,10-bis(glutaric acid 1-tBu ester), followed by acid deprotection and gadolinium complexation. C57Bl/6 adult male mice at 8 weeks of age received a single intratracheal dose of bleomycin, 1 U/kg body weight (50 μL total volume) as previously described. Pair-wise imaging study of GdCHyd and Gd-9 was carried out in mice at day 14 post bleomycin injury on a 4.7 T MRI with a dose of 100 μmol/kg of each probe. For the treatment study, mice were imaged first at day 10 post bleomycin injury, then treated daily with oral gavage of either epigallocatechin gallate (EGCG, 100 mg/kg) or PBS (vehicle) for 11 days. At day 21 post bleomycin injury, the animals were imaged again. MRI consisted of T1-weighted UTE (TR/TE/flip angle=4 ms/0.011 ms/15°) images acquired prior to and up to 30 minutes following intravenous administration of Gd-9 ([…]). Following the second imaging session, animals were euthanized (60 minutes post injection), and lung tissues were removed for further analysis.
The dual hydrazine probe Gd-9 was first compared to GdCHyd in a head-to head comparison in vivo. Mice were imaged 14 days after bleomycin injury first with Gd-CHyd and then 4 h later with Gd-9. […] Gd-9 was nexted used to monitor response to EGCG treatment in bleomycin-injured mice. Mice were imaged at 10 days after bleomycin injury and then the mice were treated with EGCG (100 mg/kg) or PBS (vehicle) for 11 days, and then the mice were imaged again (FIG. 14).

Data set [2] can be described thus: Reaction rates with 2-formylpyridine measured by HPLC-ICP-MS (Method A). It is filed as physicochemical. The note with it: Method a: 2-formylpyridine 1000 μM, probe 25 μM, pH 7.40 PBS. As to the method: Quantitative Measurement of Reaction Rates with Aldehydes: Method A: Reaction Rates of Compounds with 2-Formylpyridine Measured by HPLC-ICP-MS
Reactivity of aldehyde-binding probes were assessed in pH 7.40 phosphate-buffered saline under pseudo-first order conditions with 2-formylpyridine concentration of 1000 μM and probes at 25 μM. Concentrations of unreacted starting material and condensation products were determined at 12 min time intervals based on their relative integrations. The values were fit to a standard first order rate constant linear equation and the rate constant was extracted from the slope.

Data set [3] can be described thus: Relaxivity measurements in PBS. The class given is physicochemical. The note with it: 1.4 T, 37° C. As for the experimental part:
(§1) BSA-ALD (10 mg/mL) or BSA (10 mg/mL) were treated for 24 hours at 37° C. with the corresponding Gd or Mn complex at a range of concentrations (0.01-0.2 mM), with a total volume of 300 μL maintained for all samples. After 24 hours, an aliquot of the solution (50 μL) was used for longitudinal (T1) relaxation measurements, recorded using a Bruker mq60 Minispec at 1.41 T and 37° C. Longitudinal (T1) relaxation times were measured via an inversion recovery experiment using 10 inversions of duration ranging between 0.05×T1 and 10×T1. Solutions (concentration range: 0.1 mM-1.0 mM) in PBS were run in parallel. To measure the relaxivity of BSA-bound species, sodium cyanoborohydride (10 mg) was added to the solution to irreversibly bind the probe to the protein. After a further 2h incubation at 37° C., protein-bound and protein-free solutions were separated by ultrafiltration. Then 200 μL PBS was added to the residue to dissolve the protein. Longitudinal (T1) relaxation times for the bounded species were measured using a Bruker mq60 Minispec at 1.41 T and 37° C. After the measurement, concentration of corresponding metal ion (Gd/Mn) in the residue and filter were both determined using an Agilent 8800 ICP-MS system. Relaxivity (r1) was determined from the slope of a plot of 1/T1 vs metal concentration for 5 concentrations.

Data set [4] concerns the target bovine serum albumin (BSA) (Bos taurus, UniProt P02769). The experiment in a line: Relaxivity measurements with BSA. The class given is binding. The note with it: 1.4 T, 37° C., BSA 10 mg/mL. As to the method:
as §1

Data set [5] concerns the target T1, BSA-ALD (oxidized bovine serum albumin containing allysine aldehyde groups) (Bos taurus, UniProt P02769).
T1 construct: made in house; host or cells: no expression host: BSA oxidised chemically with sodium ascorbate, ferric chloride and H2O2, then desalted on PD-10
The data set is described as follows: Relaxivity measurements with BSA-Ald. It is filed as binding. The note with it: 37° C.; for r1, +BSA-Ald / r1, Bound to BSA-Ald: 1.4 T; for r1, +BSA-Ald: BSA-Ald 10 mg/mL; for r1, Bound to BSA-Ald: protein-bound species after NaBH3CN and ultrafiltration. As for the experimental part: Preparation of Allysine Containing Bovine Serum Albumin, BSA-ALD:
To a solution of bovine serum albumin (BSA) (100 mg) dissolved in phosphate buffered saline (4 mL, pH 7.4, 0.25 mM), sodium ascorbate (20 mg), ferric chloride (120 μL, 10 mM) and 20 μL H2O2 (30% w) were added. The reaction was stirred at 37° C. for 24 hours, and sodium ascorbate (20 mg) was added repeatedly every 8 hours. After the reaction, protein was purified using PD-10 Sephadex G25 desalting columns (GE Healthcare), eluted with PBS. Protein concentration was assessed using the ‘BCA Protein Assay Kit’ (Thermo Scientific). Protein carbonyl concentration was determined by ‘Protein Carbonyl Content Assay Kit’ (Sigmal-Aldrich).
(§2) Alternatively, preparation of BSA^Ald and binding of Gd^3+ probe to protein was carried out according to modified procedures. To a solution of bovine serum albumin (BSA) (100 mg) dissolved in phosphate buffered saline (4 mL, pH 7.4, 0.25 mM) was added sodium ascorbate (20 mg), ferric chloride (120 μL, 10 mM) and 20 μL H2O2 (30% w). The reaction was stirred at 37° C. for 24 h, and sodium ascorbate (20 mg) was added repeatedly every 8 h. After 24 h, the protein was purified using PD-10 Sephadex G25 desalting columns (GE Healthcare), eluted with PBS. Protein concentration was assessed using the ‘Micro BCA Protein Assay Kit’ (Thermo Scientific, 23235). Protein carbonyl concentration was determined by ‘Protein Carbonyl Content Assay Kit’ (Sigma-Aldrich, MAK094-1KT). […] The protein solutions were kept at a concentration of 20 mg/mL for further use.
as §1

The target in a further data set is T2, BSA-ALD (Bos taurus, UniProt P02769).
T2 construct: made in house; host or cells: no expression host: BSA oxidised chemically with sodium ascorbate, ferric chloride and H2O2, then desalted on PD-10
T2 sequence (P02769 25-607): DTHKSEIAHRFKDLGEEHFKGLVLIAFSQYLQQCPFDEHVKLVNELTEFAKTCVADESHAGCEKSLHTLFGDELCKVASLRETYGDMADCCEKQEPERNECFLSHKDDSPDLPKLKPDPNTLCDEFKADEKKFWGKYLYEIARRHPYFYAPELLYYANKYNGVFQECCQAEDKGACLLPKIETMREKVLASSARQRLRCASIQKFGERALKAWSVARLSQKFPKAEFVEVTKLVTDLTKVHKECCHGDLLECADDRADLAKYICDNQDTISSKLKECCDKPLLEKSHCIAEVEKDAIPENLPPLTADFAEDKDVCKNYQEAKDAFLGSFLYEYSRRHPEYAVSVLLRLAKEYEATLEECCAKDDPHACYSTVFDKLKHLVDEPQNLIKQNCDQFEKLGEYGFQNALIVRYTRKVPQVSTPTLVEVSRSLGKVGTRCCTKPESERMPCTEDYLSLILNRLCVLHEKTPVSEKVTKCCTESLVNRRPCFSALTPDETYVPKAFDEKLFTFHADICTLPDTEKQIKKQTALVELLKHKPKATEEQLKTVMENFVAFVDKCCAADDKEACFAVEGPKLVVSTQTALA
The experiment in a line: Binding yield measurements of Gd^3+ complex with BSA^Ald (ultrafiltration, ICP-MS). The note with it: pH 7.4, PBS, 37° C., 12 h, ultrafiltration 5,000 Da cut-off. Details: species or system bovine. As for the experimental part:
FIG. 48. […] Binding concentration of the probes to BSA^Ald (pH 7.4, PBS, 37° C., 12 h) as determined by ICP-MS following an ultrafiltration (5,000 Da cut-off) to separate the protein-bound probe from the unbound probe. Slope gives the binding yield.
as §2

For data set [6], the system named is ECM proteins from fibrotic rat liver. The data set is described as follows: Relaxivity measurements in ECM. It is filed as binding. As for the experimental part:
Liver fibrosis was induced in male Sprague Dawley rats by ligation of the common bile duct (CD®, Charles River Labs, Wilmington, MA). Ten days after common bile duct ligation, the fibrotic liver was harvested and sequential extractions were performed using the CNMCS (Cytosol/Nucleus/Membrane/Cytoskeleton) Compartmental Protein Extraction kit (Cytomol, Union City, CA) according to manufacturer's instructions. In brief, frozen tissues (150-200 mg) were homogenized and with solvents provided in the kit to sequentially to remove: cytosolic proteins, nuclear proteins, membrane proteins, and cytoskeletal proteins, leaving a final insoluble fraction enriched for ECM proteins.
Relaxivity Measurements in ECM
The enriched ECM proteins from 800 mg of fibrotic rat liver were suspended in 1 ml PBS. The ECM protein concentration was about 10% (5 mg in a 50 μL aliquot determined by weight after lyophilization). An aliquot of the solution (50 μL) was treated for 2 h at 37° C. with the corresponding molecular probe at a range of concentrations (0.01-0.1 mM) and then longitudinal (T1) relaxation measurements was recorded using a Bruker mq60 Minispec at 1.41 T and 37° C. For the blocking experiment with N2H4, a 100 fold-excess of N2H4 referred to the concentration of molecular probe was added to the solution before the incubation. Longitudinal (T1) relaxation times were measured via an inversion recovery experiment using 10 inversions of duration ranging between 0.05×T1 and 10×T1. Relaxivity (r1) was determined from the slope of a plot of 1/T1 vs metal concentration for 4 concentrations.

Data set [7] can be described thus: Reaction rates with butyraldehyde measured by HPLC-ICP-MS (Method B). The note with it: Method b: butyraldehyde 100 μM, probe 25 μM, pH 7.40. It is filed as physicochemical. As to the method: Method B: Reaction Rates of Compounds with Butyraldehyde Measured by HPLC-ICP-MS
The reactions were conducted in pH 7.40 phosphate-buffered with butyraldehyde concentration of 100 μM and hydrazine probes at 25 μM. Concentrations of unreacted starting material and condensation products were determined at 10 min time intervals over 2 hours based on their relative integrations. The values were fit to a standard first order rate constant linear equation and the rate constant was extracted from the slope.
Reaction with Butyraldehyde Monitored by HPLC-ICP-MS
Reactions were conducted in pH 7.4 phosphate-buffered saline with butyraldehyde concentration of 100 μM and hydrazine probes at 25 μM. Concentrations of unreacted starting material and condensation products were determined based on their relative integrations at 12 min time intervals over 2 hours.

The nature of data set [8]: Biodistribution of manganese in healthy mice 60 minutes post-injection. The class given is in vivo, mouse. The note with it: 0.1 mmol/kg i.v. An excerpt:
To meet these requirements, the probes Mn-12, Mn-13 and Mn-14 were designed based on the stable Mn-1,4-DO2A chelate. […] This combination of stability, turn-on relaxivity, and low uptake in healthy liver indicate that Mn-12 is quite promising as a novel probe for liver fibrogenesis detection.

Setting [9] is: EGCG 100 mg/kg oral gavage daily for 11 days vs vehicle.

The record followed here is US20240285808A1, “MOLECULAR PROBES FOR IN VIVO DETECTION OF ALDEHYDES” (The General Hospital Corporation, priority 2021, published 2024).

Each structure is given as a SMILES string. Values joined by “and” are separate entries in the source; they are usually repeats but may differ in a detail not shown here. Identical values can stand only once. “Also recorded” adds a separate entry of the source.

T1 sequence (P02769 25-607): as above
Chain of bovine serum albumin (BSA) (P02769 25-607): as above

With `O=C(O[C@@H]1Cc2c(O)cc(O)cc2O[C@@H]1c1cc(O)c(O)c(O)c1)c1cc(O)c(O)c(O)c1` [EGCG, epigallocatechin gallate], the “lung to muscle ΔCNR after Gd-9 injection, day 21 vs day 10” value in [1] (EGCG 100 mg/kg oral gavage daily for 11 days) is “significantly decreased”. In [1] (setting [9]), the lung allysine content entry is “significantly reduced” and the “lung hydroxyproline (total collagen)” value is “reduced”.

On to `NN1CCN(C(=O)CCOCCOCCOCCOCCNC(=O)CN2CCN(CC(=O)[O-])CCN(CC(=O)[O-])CC2)CC1.[Ga+3]` [Ga-1], for which the “k (second order rate constant)” value in data set [2] turned out to be 0.06 M⁻¹ s⁻¹.

As to `NC(Cn1cccc1)C(=O)NCCOCCOCCOCCNC(=O)CN1CCN(CC(=O)[O-])CCN(CC(=O)[O-])CC1.[Ga+3]` (stereo not shown) [Ga-2], the “k (second order rate constant)” value in [2] was 0.11 M⁻¹ s⁻¹.

For the compound `O=C([O-])CN1CCN(CC(=O)[O-])CCN(CC(=O)NCCOCCOCCOCCNC(=O)CN2C(=O)CSC2=S)CC1.[Ga+3]` [Ga-4], the “k (second order rate constant)” value in data set [2] was 0.34 M⁻¹ s⁻¹.

For the compound `NN1CCN(C(=O)CCC(C(=O)[O-])N2CCN(CC(=O)[O-])CCN(CC(=O)[O-])CCN(C(CCC(=O)N3CCNCC3)C(=O)[O-])CC2)CC1.[Gd+3]` (stereo not shown) [Gd-11], in data set [3], the “r1, PBS” value is 6.2 mM⁻¹ s⁻¹. In addition, the “r1, +BSA” value in [4] is 6.2 mM⁻¹ s⁻¹. Moreover, in [5], the “r1, +BSA-Ald” value was 7.6 mM⁻¹ s⁻¹; the “r1, Bound to BSA-Ald” value is 13.7 mM⁻¹ s⁻¹ and 13.8 mM⁻¹ s⁻¹. Further, the “increase of r1 in BSA^Ald compared to PBS value” in [5] (1.41 T) was determined as 23%. For the same compound, the “equilibrium binding to BSA^Ald (binding yield)” value on BSA-ALD is listed as 19.2%. The “relaxivity in ECM” value in [6] (PBS, pH 7.4, 2 h, 37° C., 1.41T) is 6.7 mM⁻¹ s⁻¹. The “relaxivity in ECM with 100-fold excess of hydrazine” value in [6] (aldehydes blocked with N2H4) came out at 6.1 mM⁻¹ s⁻¹.

Turning to `CCCCN1CCN(CCCC(=O)N2CCN(N)CC2)CCN(CC(=O)[O-])CCN(CC(=O)[O-])CC1.[Mn+2]` [Mn-13], the “k (second order rate constant)” value in [7] was determined as 1.9 M⁻¹ s⁻¹. Moreover, the “r1, PBS” value in data set [3] came out at 1.6 mM⁻¹ s⁻¹. In addition, the “r1, +BSA” value in data set [4] worked out at 1.9 mM⁻¹ s⁻¹. Besides, in data set [5], the “r1, +BSA-Ald” value stood at 2.3 mM⁻¹ s⁻¹ and the “r1, Bound to BSA-Ald” value was 6.2 mM⁻¹ s⁻¹. The “Mn liver levels in healthy mice” value in [8] is “high Mn liver levels; also recorded: elevated levels”.

Consider `NNC(=O)CCCN1CCN(CCCC(=O)NN)CCN(CC(=O)[O-])CCN(CC(=O)[O-])CC1.[Mn+2]` [Mn-14], for which the “k (second order rate constant)” value in data set [7] amounted to 1.4 M⁻¹ s⁻¹. The “r1, PBS” value in data set [3] turned out to be 1.5 mM⁻¹ s⁻¹. Moreover, in data set [4], the “r1, +BSA” value came to 1.8 mM⁻¹ s⁻¹. For the same compound, in data set [5], the “r1, +BSA-Ald” value is 2.5 mM⁻¹ s⁻¹ and the “r1, Bound to BSA-Ald” value is 7.3 mM⁻¹ s⁻¹.
